Assay results: patent US6500323B1, “Methods and software for designing microfluidic devices” (Caliper Technologies Corp., priority 1999, dated 2002)

Legend:
Protein Kinase A (PKA) = Protein Kinase A (PKA) (Homo sapiens, UniProt P17612); assay: nonfluorogenic (mobility shift) assay of kinase activity in microfluidic device; assay type: biochemical; conditions: PKA 100 nM, 10 μM F1-Kemptide; different concentrations of inhibitor sipped; FIG. 3C
Description: The device illustrated in FIG. 3B was used as described to perform a nonfluorogenic assay of kinase activity, and particularly, to screen for inhibition of kinase activity by inhibitors brought into the device via the external sampling capillary. In particular, Protein Kinase A (PKA) enzyme (100 nM) was placed into well 350, while the fluorescent substrate (10 μM F1-Kemptide) was placed into well 352, different concentrations of an exemplary PKA inhibitor (H-89) were sipped into the reaction channel portion 304 via an external capillary element (the entry point of which is shown as 302) at regular intervals. Flow of materials, including sipping of inhibitor was caused by applying vacuum (as described above) at waste reservoir 358. An electric field was constantly applied across the length of channel segment 310 by virtue of different voltages being applied at reservoirs 354 and 356. The process utilized a 5 second sipping time, with an overall 100 second duty cycle, e.g., reaction time plus separation time plus clearing time.

[1] = target: T1, Gq coupled P2u purinergic receptor (THP-1) (Homo sapiens, UniProt P41231); assay: model calcium flux assay, dose response in microfluidic device; assay type: cell-based; conditions: THP-1 cells preloaded with Fluo-3 or Fluo-4; UTP 100, 300, 1000 and 3000 nM; detection 15 seconds after initial exposure; FIG. 2D/2E
T1 construct: cell line that carried the Gq coupled P2u purinergic receptor (THP-1); endogenous in cells; host or cells: THP-1 (human monocytic leukemia cell line)
T1 sequence (P41231 whole entry): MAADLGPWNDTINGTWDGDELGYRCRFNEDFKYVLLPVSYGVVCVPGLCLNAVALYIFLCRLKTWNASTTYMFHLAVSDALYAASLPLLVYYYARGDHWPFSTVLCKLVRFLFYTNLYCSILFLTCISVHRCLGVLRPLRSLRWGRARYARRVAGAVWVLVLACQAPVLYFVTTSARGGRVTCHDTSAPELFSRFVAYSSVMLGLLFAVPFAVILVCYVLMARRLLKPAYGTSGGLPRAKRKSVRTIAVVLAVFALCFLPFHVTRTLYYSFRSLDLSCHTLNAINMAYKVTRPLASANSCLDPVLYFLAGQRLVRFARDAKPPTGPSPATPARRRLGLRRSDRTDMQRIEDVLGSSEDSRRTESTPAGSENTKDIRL
Text: The device shown in FIG. 2C was fabricated and used to test the dose response of a human monocytic leukemia cell line that carried the Gq coupled P2u purinergic receptor (THP-1), as a model calcium flux assay. Briefly, a phospholipase C/IP3/calcium signal transduction pathway is activated when the receptor binds to its ligand, UTP. When the cells are preloaded with a calcium sensitive indicator, i.e., Fluo-3 or Fluo-4 (available from Molecular Probes, Eugene, Oreg.), the transient increase in intracellular calcium is then detected as a fluorescent signal.
In the present example and with reference to FIGS. 2A and 2C, THP-1 cells were preloaded with Fluo-3 or Fluo-4, as well as a nucleic acid stain (Syto-62 from Molecular Probes). The cells were washed and resuspended in Cell Buffer (1.56 ml HBSS, 0.94 ml 33% Ficoll, 5 μl HEPES (1 M stock), 25 μl 100×PBC, 25 μl 10% BSA, and 0.546 ml OPTI-Prep (65% stock)) and added to reservoir 206. Different concentrations of UTP in Cell Buffer (100, 300, 1000 and 3000 nM, respectively) were then added to reagent reservoirs 210-216. […]
In order to monitor the stepwise increase of each UTP reagent solution, an additional marker solution, BODIPY-arginine, was added to the reagent reservoirs 210-216. […] Briefly, the slope of calcium signal (response) vs. Syto 62 signal (cell number) was calculated for each UTP concentration.

Row | Compound | inhibition of kinase activity (deviation from steady state) (Protein Kinase A (PKA)) | calcium signal (response), fluorescent signal from each cell [1]
1 | O=S(=O)(NCCNC/C=C/c1ccc(Br)cc1)c1cccc2cnccc12 [H-89] | greatest deviation from steady state (A) is seen with highest inhibitor concentration | –
2 | O=c1ccn([C@@H]2O[C@H](COP(=O)(O)OP(=O)(O)OP(=O)(O)O)[C@@H](O)[C@H]2O)c(=O)[nH]1 [UTP] | – | peaks increase discernibly in size with each stepwise addition
